This note sets out measurements from ChEMBL document CHEMBL1212765, “An A643T mutation in the transcription factor Upc2p causes constitutive ERG11 upregulation and increased fluconazole resistance in Candida albicans” (2010).

Structures are written as SMILES. Values after ≈ are worked out from the molar mass of the structure shown. Active and inactive are the calls of the source. The calls are words filed in the database; no cut-off is given here.

Assay [1] concerns Candida albicans. Briefly: Antimicrobial activity against Candida albicans isolate SC5314 expressing UPC2/UPC2 A643T mutant allele by microdilution method relative wild type. Format: functional, organism-based. (Dilution methods test growth across graded concentrations, often in twofold steps.)
The test system of assay [2] is Candida albicans. Briefly: Antimicrobial activity against fluconazole susceptible Candida albicans 5054 expressing low levels of ERG11 and UPC2 mRNA by microdilution method. Format: functional.
Assay [3] concerns Candida albicans. Briefly: Antimicrobial activity against fluconazole susceptible Candida albicans isolate 945 expressing low levels of ERG11 and UPC2 mRNA by microdilution method. Format: functional.
The subject of assay [4] is Candida albicans. In words: Antimicrobial activity against fluconazole susceptible Candida albicans isolate 1002 expressing low levels of ERG11 and UPC2 mRNA by microdilution method. Format: functional.
The test system of assay [5] is Candida albicans. Briefly: Antimicrobial activity against fluconazole susceptible Candida albicans isolate 580 expressing low levels of ERG11 and UPC2 mRNA by microdilution method. Format: functional.
Assay [6] concerns Candida albicans. In words: Antimicrobial activity against Candida albicans isolate SC5314 expressing UPC2 G648D/UPC2 A643T double mutant alleles by microdilution method relative wild type. It counts as functional, organism-based.
The subject of assay [7] is Candida albicans. In words: Antimicrobial activity against Candida albicans isolate SC5314 expressing UPC2 G648D/UPC2 G648D double mutant alleles by microdilution method relative wild type. Format: functional.
The test system of assay [8] is Candida albicans. Briefly: Antimicrobial activity against fluconazole susceptible Candida albicans isolate 5052 expressing low levels of ERG11 and UPC2 mRNA by microdilution method. It counts as functional.
The subject of assay [9] is Candida albicans. In words: Antimicrobial activity against Candida albicans isolate SC5314 expressing UPC2/UPC2 G648D mutant allele by microdilution method relative wild type. It counts as functional.
In assay [10] the test system is Candida albicans. Briefly: Antimicrobial activity against fluconazole resistant Candida albicans isolate 2440 expressing high levels of ERG11 and UPC2 mRNA by microdilution method. It counts as functional.
The test system of assay [11] is Candida albicans. Briefly: Antimicrobial activity against fluconazole resistant Candida albicans isolate 1619 expressing high levels of ERG11 and UPC2 mRNA by microdilution method. Format: functional.
The subject of assay [12] is Candida albicans. In words: Antimicrobial activity against fluconazole resistant Candida albicans isolate 3795 expressing high levels of ERG11 and UPC2 mRNA by microdilution method. Format: functional.

Consider `OC(Cn1cncn1)(Cn1cncn1)c1ccc(F)cc1F` [FLUCONAZOLE], for which the MIC result in the assay with Candida albicans [1] and in the assay on Candida albicans [6] was “inactive” each time. Moreover, the MIC – broadly, the least concentration at which growth counts as inhibited – against Candida albicans [2] was determined as 4 µg/mL (≈ 13.1 µM); against Candida albicans [3], 4 µg/mL (≈ 13.1 µM); with Candida albicans [4], 0.25 µg/mL (≈ 0.816 µM); against Candida albicans [5] it was 1 µg/mL (≈ 3.27 µM); with Candida albicans [8], 32 µg/mL (≈ 104 µM); against Candida albicans [10], 32 µg/mL (≈ 104 µM). Besides, the minimum inhibitory concentration (MIC) against Candida albicans [11] was 32 µg/mL (≈ 104 µM); in the assay with Candida albicans [12], above 64 µg/mL. In addition, the Ratio with Candida albicans [7] is 8; with Candida albicans [9] it was 4.
